Patent US20100137239A1, “GEMCITABINE COMBINATION THERAPY” (GLOUCESTER PHARMACEUTICALS, priority 2006, published 2010)
“And” between values parts separate entries of the source, which are not always exact repeats. Identical values can stand only once.

What was measured:
acetylated histone 4 = assay: Immunoblot of acetylated histone 4 in PANC-1 xenograft tumors; format: in vivo, human; conditions: FK228 5 mg/kg Q4Dx3; gemcitabine 80 mg/kg Q3Dx4; tumors at study completion; vs controls
Procedure: (§1) Abstract: To examine activity and mechanism of FK228, antitumor efficacy was tested in PANC-1 pancreatic adenocarcinoma model representing transformed Ras, either as a single agent or in combination with gemcitabine. Following PANC-1 study completion, tumor and sera were obtained from: • the vehicle control; • FK228 dosed at 5 mg/kg once every four days for three treatments (Q4Dx3); • Gemcitabine at 80 mg/kg (Q3Dx4); and • the drug combination. Expression of c-Myc, acetylated histones 3 and 4, and p21^waf1 was compared between control and FK228 groups by immunoblotting and was quantified following actin normalization. Serum levels of putative tumor products b-FGF and MMP-2 were quantified by human-specific ELISA. […]
(§2) Tissue Biomarkers: Tumor levels of acetylated histone-4, histone-4, c-Myc, p21waf and β-actin were quantified by immunoblotting as described. […] The chemiluminescence signal was captured by autoradiography, quantified by densitometry and expressed as a ratio of actin in each sample lane. For each biomarker, means and standard errors were calculated in each treatment group. […]
(§3) Expression of c-Myc, acetylated histones 3 and 4, and p21^waf1 was compared between control and FK228 groups by immunoblotting and was quantified following actin normalization. Serum levels of putative tumor products b-FGF and MMP-2 were quantified by human-specific ELISA. […]

[1] = tested on: PANC-1 Human Pancreatic Tumor Xenograft; assay: PANC-1 xenograft tumor growth inhibition study (Example 3); format: in vivo, mouse xenograft; conditions: for % TGI: PANC-1, Day 25; for #PR/CR / % TR / FINAL TUMOR VOLUME (DAY 25) MEAN ± SEM / activity according to NCI Standards / calculated TGI values (discussion): PANC-1; for calculated TGI values (discussion): all evaluated doses and schedules
Source text: (§4) (Madison, Wis.). […] Tumor measurements were converted to cubic millimeter tumor volume using the formula^(5): […] Final mean tumor volume ±SEM for each group was reported; animals experiencing partial or complete tumor regressions or animals experiencing technical or drug-related deaths were censored from these calculations. […] TGI values for each treatment group are reported at study completion; these calculations are based on the final study day. […] If partial tumor regression was reported in multiple animals within one group, a mean value was determined. Individual mice lacking palpable tumors were classified as undergoing complete regression (CR). Animals experiencing partial or complete tumor regressions were censored from TGI calculations. However, data from these animals was included in statistical analysis calculations. In addition, weight data from these animals was included in daily and final group calculations. Tumor Necrosis-Degree of tumor necrosis was rated at each tumor measurement using the following arbitrary index: [table]

acetylated histone 3 = assay: Immunoblot of acetylated histone 3 in PANC-1 xenograft tumors; format: in vivo, human; conditions: FK228 5 mg/kg Q4Dx3; gemcitabine 80 mg/kg Q3Dx4; tumors at study completion; vs controls
Procedure: as §1, §2, §3

[2] = tested on: BxPC-3 Human Pancreatic Tumor Xenograft; assay: BxPC-3 xenograft tumor growth inhibition study (Example 3); format: in vivo, mouse xenograft; conditions: for % TGI: BxPC-3, Day 29; for #PR/CR / FINAL TUMOR VOLUME (DAY 29) MEAN ± SEM / activity according to NCI Standards / calculated TGI values (discussion): BxPC-3; for calculated TGI values (discussion): all evaluated doses and schedules
Source text: as §4

[3] = FK228 2.5 mg/kg IV Q4Dx3, 2.5 mg/kg
[4] = FK228 5 mg/kg IV Q4Dx3, 5 mg/kg

## Nc1ccn([C@@H]2O[C@H](CO)[C@@H](O)C2(F)F)c(=O)n1 [Gemcitabine, gemcitabine]
Acetylated histone 4
  increase of acetylated histone 4: on the control level
[1]; Gemcitabine 40 mg/kg IP Q3Dx4
  % TGI: 31%
  #PR/CR: 1/9 and 1/0
  % TR: 62%
  FINAL TUMOR VOLUME (DAY 25) MEAN ± SEM: 1566±255 mm^3
  activity according to NCI Standards: inactive
[1]; Gemcitabine 80 mg/kg IP Q3Dx4
  % TGI: 51%
  #PR/CR: 0/9 and 0/0
  FINAL TUMOR VOLUME (DAY 25) MEAN ± SEM: 1172±234 mm^3
  activity according to NCI Standards: inactive
[1]; Gemcitabine 40 mg/kg IP Q3Dx4, listed as gemcitabine
  % TR: 62%
[1]
  calculated TGI values (discussion): less than 58%
Acetylated histone 3
  acetylation of histone 3: significantly inhibited
[2]; Gemcitabine 40 mg/kg IP Q3Dx4
  % TGI: 20%
  #PR/CR: 0/9 and 0/0
  FINAL TUMOR VOLUME (DAY 29) MEAN ± SEM: 1683±426 mm^3
  activity according to NCI Standards: inactive
[2]; Gemcitabine 80 mg/kg IP Q3Dx4
  % TGI: 9%
  #PR/CR: 0/9 and 0/0
  FINAL TUMOR VOLUME (DAY 29) MEAN ± SEM: 1890±237 mm^3
  activity according to NCI Standards: inactive
[2]
  calculated TGI values (discussion): less than 58%

## C/C=C1\NC(=O)[C@H]2CSSCC/C=C/[C@H](CC(=O)N[C@H](C(C)C)C(=O)N2)OC(=O)[C@H](C(C)C)NC1=O [FK228, romidepsin]
Acetylated histone 4
  increase of acetylated histone 4: over 2 fold
[1]; FK228 2.5 mg/kg IV Q4Dx3
  % TGI: 26%
  activity according to NCI Standards: inactive
[1]; FK228 5 mg/kg IV Q4Dx3
  % TGI: 26%
  activity according to NCI Standards: inactive
[1]; [3]
  #PR/CR: 0/9 and 0/0
  FINAL TUMOR VOLUME (DAY 25) MEAN ± SEM: 1688±290 mm^3
[1]; [4]
  #PR/CR: 0/9 and 0/0
  FINAL TUMOR VOLUME (DAY 25) MEAN ± SEM: 1690±290 mm^3 and 1690 ± 331 mm^3
[1]
  calculated TGI values (discussion): less than 58%
[1]; ras-transformed PANC-1
  single agent activity towards tumor model: some activity
Acetylated histone 3
  acetylation of histone 3: not affected
[2]; FK228 2.5 mg/kg IV Q4Dx3
  % TGI: No TGI
  activity according to NCI Standards: inactive
[2]; FK228 5 mg/kg IV Q4Dx3
  % TGI: No TGI
  activity according to NCI Standards: inactive
[2]; [3]
  #PR/CR: 0/9 and 0/0
  FINAL TUMOR VOLUME (DAY 29) MEAN ± SEM: 2440±643 mm^3
[2]; [4]
  #PR/CR: 0/9 and 0/0
  FINAL TUMOR VOLUME (DAY 29) MEAN ± SEM: 2620±238 mm^3
[2]
  calculated TGI values (discussion): No tumor growth inhibition
[2]; wildtype ras BxPC-3
  single agent activity towards tumor model: inactive
